Assay results from article PMC12378621, “Benzo-ring modification on Malaria Box hit MMV008138: effects on antimalarial potency and microsomal stability” (RSC Medicinal Chemistry, 2025).
Several values for one entry are separate records, joined by “and”; a condition that tells them apart may be missing. Equal values may be shown once. Read-outs that look alike come from different tables or passages of the source.

Assays:
[1] = test system: P. falciparum (Dd2 strain); settings: SYBR Green I, 72 h endpoint; previously reported; read-out: Dd2 strain P. falciparum growth inhibition EC50; cited from earlier work
[2] = test system: Plasmodium berghei ANKA expressing luciferase (PbGFP-Luccon); assay: In vivo efficacy in P. berghei-infected mice (luminescence on Day 7)
Method: 2. In vivo efficacy studies of 1 (NYU) in P. berghei-infected mice (po and iv) Efficacy of 1 in P. berghei-infected mice was assessed at the Anti-Infectives Core Facility, Department of Microbiology, Grossman School of Medicine, New York University.
A. Oral Administration Protocol
Three groups of five female Swiss Webster mice weighing 25 to 30 g were used for vehicle […]
berghei ANKA expressing luciferase (PbGFP-Luccon) obtained from a donor infected mouse.10 […]
2 to 6 and imaged on day 7.
Figure S1. Dosing and imaging timeline of P. berghei-infected mice. […]
Day 7 as described in the text.
The vehicle for all groups was 0.5% (hydroxypropyl)methyl cellulose, 0.5% Tween-80.
For the surviving mice, o n day 7 after infection, mice were anesthetized by inhalation of isofluorane and injected via i.p. with 150 mg/kg of luciferase substrate dissolved in PBS (D-Luciferin Potassium Salt , Gold Biotechnology ).
Mice were imaged 5 to 10 min after inj ection of luciferin using an IVIS imager (Lumina II In Vivo Imaging System; Perkin -Elmer). The data acquisition and analysis were performed with LivingImage (Xenogen). Accumulated light intensity was measured in each mouse to determine the baseline infection levels before treatment .
(§1) (1 picture or pasted object on this page, not shown here)
B. IV Administration Protocol
One group of four female Swiss Webster mice weighing 25 to 30 g were used for vehicle control, and groups of five mice were used for 1 treatment (IV, 2 x 30 mg/kg/d) and the positive […]
On Day 0, mice were infected via intraperitoneal (i.p.) […]
from a donor infected mouse. 10 As shown below in Figure S2 (and legend), mice were treated […]
Figure S2. Dosing and imaging timeline of P. berghei-infected mice. Vehicle and 1 (30 mpk) treatments were administered IV twice -daily on Days 2-6. […]
administered i .p. once-daily. Mice were imaged on Day 7, as described in the text.
The vehicle for this study was 30%PEG, 40% Captisol (30%w/v solution).
Table S2. Luminescence Data after background subtraction for IV dosing of Vehicle, 1, and IP […]
Table S9. Concentration of 20c vs time in mice. […]
Figure S6. Dosing and imaging timeline of P. berghei-infected mice. […]

[3] = in vivo; settings: mouse
Method: 3. Pharmacokinetics of 1 in mice
Pharmacokinetic analysis of 1 in mice was performed by Pharmaron (Beijing, China). Three mice each (23 ± 1 g) were used for oral (40 mg/kg, gavage, conscious) and for IV (10 mg/kg, lateral tail vein with anesthesia) administration. The vehicle for both routes wa s 20% DMSO, 60% PEG400 and 20% SBE-β-CD (30% w/v) in water. Stock concentrations were 4 mg/mL (both oral and IV respectively), and mice were dosed at 10.0 and 2.5 mL/kg (oral and IV respectively).
Quantitation was performed by triple-quad LC-MS.

[4] = in vitro; settings: male, mouse, microsomes
Method: Metabolic stability of 1 was studied in pooled male mouse liver microsomes (final concentration 0.5 mg/mL, 5 mM MgCl 2, 100 mM phosphate buffer). The final concentration of test […]
The mixture was pre-warmed 37°C for 5 min before addition of 50 μL of 10 mM NADPH solution at the final concentration of 1 mM and carried out at 37°C. 50 μL of ultra-pure H2O was used instead of NADPH solution in the […]
negative control. […] Drug […]
concentrations were determined using triple quad LC-MS (Table S5).
as §1

[5] = test system: P. falciparum (Dd2 strain); assay: ABS P. falciparum growth inhibition, SYBR Green I assay, 72 h endpoint; format: cell-based, Plasmodium falciparum; settings: Plasmodium falciparum, DD2; control in growth inhibition / IPP rescue assays; read-out: EC50 of MMV008138 used as control
Method: Parasites were maintained in O-positive human erythrocytes (Grifols, Memphis, TN, USA) at 5% hematocrit in RPMI 1640 medium supplemented with 5 g L^−1 Albumax I (Gibco Life Technologies), 2 g L^−1 glucose (Sigma-Aldrich), 2.3 g L^−1 sodium bicarbonate (Sigma-Aldrich), 370 μM hypoxanthine (Sigma-Aldrich), 25 mM HEPES, and 20 mg L^−1 gentamicin (Gibco Life Technologies). The parasites were kept at 37 °C under reduced-oxygen conditions (5% CO2, 5% O2, and 90% N2).
[…]. MMV008138 (1) was used as control. The percentage of growth was normalized to that of untreated control parasites in the presence of 0.1% DMSO. Background determinations were made using uninfected erythrocytes. Two or more independent experiments in duplicate were performed. The EC50 values were calculated with GraphPad Prism 9 (GraphPad Software Ltd.) using nonlinear regression curve fitting with variable slope (four parameters) and represent the average and their standard error of the mean (S.E.M.). To assess whether 20a–e specifically targeted the apicoplast, the recovery of growth in the presence of inhibitor and isopentenyl diphosphate (IPP) was performed as described previously.[8] Briefly, parasites were grown in the presence or absence of 200 μM IPP along with a serial dilution (10 μM to 0.01 μM) or single concentration (10 or 20 μM) of drug. […] All conditions were set in 96-well half area plates using highly synchronous ring-stage parasite cultures (100 μL per well at 1% hematocrit and 1% parasitemia) and incubated for 72 h under normal culture conditions. Parasite growth was measured by the SYBR green I assay.

[6] = test system: P. falciparum (Dd2 strain); design: method as in PMID 25754494; settings: drug at 2.5 μM; previously reported; cited from earlier work
[7] = test system: P. vivax IspD; design: method as in PMID 26783558; settings: cited from earlier work
[8] = test system: P. falciparum IspD; design: method as in PMID 26783558; settings: cited from earlier work
[9] = Table S2, Days 2-6, imaged Day 7, Cmpd 1 30 mg/kg 2 x daily IV, CQ 20 mg/kg 1 x daily i.p.
[10] = iv, 10 mg/kg, plasma concentration
[11] = po, 40 mg/kg, plasma concentration

## O=C(O)[C@@H]1Cc2c([nH]c3ccccc23)[C@@H](c2ccc(Cl)cc2Cl)N1 [Compound 1, reference compound]
[1]
  EC50: 250 ± 70 nM
[2]; P. berghei mouse model, IV dosing
  reduction in parasitemia: no reduction in parasitemia
[2]; P. berghei mouse model, oral dosing (20c 5 × 40 mg per kg per day)
  reduction in parasitemia / efficacy: no reduction in parasitemia
[2]; Table S1, oral 1 x daily Days 2-6, imaged Day 7, Cmpd 1 45 mg/kg, CQ 20 mg/kg
  Live/Dead and luminescence, individual mice: Dead by Day 6 and Dead by Day 7 and 1.33E+06
[2]; [9]
  Luminescence after background subtraction AVG: 1.39E+06
  Luminescence after background subtraction, individual mice: 9.49E+05 and 1.50E+06 and 1.72E+06 and 2.00E+06 and 7.68E+05
[2]; oral 45 mg/kg/d Days 2-6
  treated mice dead by Day 7 (of 5): 4
[3]; iv, 10 mg/kg
  AUC(0-inf): 38.4 ± 3.8 µM·h
  AUC(0-t): 36.1 ± 3.6 µM·h
  C0: 86 ± 6.6 µM
  Vd: 3.5 ± 0.43 L/kg
  clearance: 12.1 ± 1.3 mL/min/kg
  tlast: 24 h
[3]; iv, 10 mg/kg, Cmin
  concentration at 24 h: 0.164 ± 0.017 µM
[3]; [10]
  concentration at 0.083 h: 58.6 ± 5.5 µM
  concentration at 0.25 h: 27.1 ± 3.7 µM
  concentration at 0.5 h: 14.8 ± 1.9 µM
  concentration at 1 h: 4.8 ± 1.7 µM
  concentration at 2 h: 1.3 ± 0.4 µM
  concentration at 4 h: 0.66 ± 0.04 µM
  concentration at 8 h: 0.51 ± 0.03 µM
  concentration at 24 h: 0.16 ± 0.02 µM
[3]; iv, 10 mg/kg, t1/2
  half-life: 9.9 ± 4 h
[3]; po, 40 mg/kg
  AUC0-inf: 88 µM·h
  AUC(0-inf): 88 ± 15 µM·h
  AUC(0-t): 79 ± 8.9 µM·h
  Cmax: 46.1 ± 7.3 µM
  Tmax: 0.25 h
  tlast: 24 h
[3]; po, 40 mg/kg, % F
  bioavailability: 57%
[3]; po, 40 mg/kg, %F
  bioavailability: 57 ± 10%
[3]; po, 40 mg/kg, Cmin
  concentration at 24 h: 0.65 ± 0.35 µM
[3]; [11]
  concentration at 0.25 h: 46.1 ± 8 µM
  concentration at 0.5 h: 28.2 ± 4.1 µM
  concentration at 1 h: 12.7 ± 2.7 µM
  concentration at 2 h: 5.4 ± 0.31 µM
  concentration at 4 h: 3.2 ± 0.25 µM
  concentration at 8 h: 2.4 ± 0.45 µM
  concentration at 24 h: 0.64 ± 0.35 µM
[3]; po, 40 mg/kg, t 1/2
  half-life: 8.5 h
[3]; po, 40 mg/kg, t1/2
  half-life: 8.5 ± 0.24 h
[4]
  half-life at 1 µM: ~0.167 h
[4]; 1 h, 1 µM
  % remaining at 60 min: 103.9%
[5]
  EC50: 170 ± 10 nM
[6]
  % recovery (200 μM IPP): 100%@2.5 μM ^c
[7]
  IC50: 310 nM
[8]
  IC50: 47 nM
